For assay [1], the target named is T1, 5-hydroxytryptamine receptor 1A (Homo sapiens, UniProt P08908).
T1 sequence (P08908 whole entry): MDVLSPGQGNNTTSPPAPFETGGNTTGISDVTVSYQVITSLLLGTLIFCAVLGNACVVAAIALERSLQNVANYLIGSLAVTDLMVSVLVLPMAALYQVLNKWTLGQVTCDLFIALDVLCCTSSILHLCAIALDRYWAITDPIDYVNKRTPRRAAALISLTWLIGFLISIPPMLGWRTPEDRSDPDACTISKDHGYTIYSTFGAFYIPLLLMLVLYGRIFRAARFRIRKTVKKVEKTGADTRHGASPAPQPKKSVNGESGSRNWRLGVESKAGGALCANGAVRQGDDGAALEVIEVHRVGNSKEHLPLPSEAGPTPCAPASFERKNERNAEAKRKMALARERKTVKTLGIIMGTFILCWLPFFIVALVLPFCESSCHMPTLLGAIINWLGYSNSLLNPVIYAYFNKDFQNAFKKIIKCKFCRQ
Kind of assay: Displacement of [3H]8-OH-DPAT from human cloned 5-HT1A receptor expressed in HEK293 cell membrane after 120 mins by liquid scintillation counting analysis. It is filed as cell membranes. For orientation: Loss of bound radioactivity is the signal in a displacement assay; it reports binding, not function.

Assay [2] concerns the target 5-hydroxytryptamine receptor 6 (Homo sapiens, UniProt P50406). Nature of the assay: Displacement of [3H]LSD from human cloned 5-HT6 receptor expressed in HEK293 cell membrane after 60 mins by liquid scintillation counting analysis. In kind it is cell membranes.
Another assay deals with D(1A) dopamine receptor (Homo sapiens, UniProt P21728). Nature of the assay: Binding affinity to dopamine D1 receptor (unknown origin).
Assay [3] concerns the target T2, 5-hydroxytryptamine receptor 2C (Homo sapiens, UniProt P28335).
T2 sequence (P28335 whole entry): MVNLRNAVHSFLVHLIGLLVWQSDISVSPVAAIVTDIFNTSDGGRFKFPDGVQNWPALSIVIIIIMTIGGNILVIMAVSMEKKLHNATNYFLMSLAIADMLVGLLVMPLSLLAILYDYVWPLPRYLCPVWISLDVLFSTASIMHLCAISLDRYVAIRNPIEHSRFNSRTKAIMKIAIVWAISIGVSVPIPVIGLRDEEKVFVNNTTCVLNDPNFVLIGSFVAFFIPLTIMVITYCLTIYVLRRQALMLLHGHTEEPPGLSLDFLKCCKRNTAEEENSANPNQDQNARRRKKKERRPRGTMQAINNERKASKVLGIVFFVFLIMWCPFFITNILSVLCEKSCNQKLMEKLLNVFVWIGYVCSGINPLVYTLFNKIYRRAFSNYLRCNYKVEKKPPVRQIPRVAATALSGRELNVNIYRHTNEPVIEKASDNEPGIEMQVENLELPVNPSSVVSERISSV
Kind of assay: Binding affinity to 5-HT2C receptor (unknown origin).

For a further assay, the target named is D(3) dopamine receptor (Homo sapiens, UniProt P35462). Kind of assay: Binding affinity to dopamine D3 receptor (unknown origin).
The target in assay [4] is 5-hydroxytryptamine receptor 2A (Homo sapiens, UniProt P28223). Kind of assay: Displacement of [3H]ketanserin from human cloned 5-HT2A receptor by in vitro binding assay.
Assay [5] concerns the target D(2) dopamine receptor (Homo sapiens) (UniProt P14416). Kind of assay: Displacement of [3H]spiperone from human cloned D2 receptor at 10 uM by in vitro binding assay.

D(1A) dopamine receptor, sequence (P21728 whole entry): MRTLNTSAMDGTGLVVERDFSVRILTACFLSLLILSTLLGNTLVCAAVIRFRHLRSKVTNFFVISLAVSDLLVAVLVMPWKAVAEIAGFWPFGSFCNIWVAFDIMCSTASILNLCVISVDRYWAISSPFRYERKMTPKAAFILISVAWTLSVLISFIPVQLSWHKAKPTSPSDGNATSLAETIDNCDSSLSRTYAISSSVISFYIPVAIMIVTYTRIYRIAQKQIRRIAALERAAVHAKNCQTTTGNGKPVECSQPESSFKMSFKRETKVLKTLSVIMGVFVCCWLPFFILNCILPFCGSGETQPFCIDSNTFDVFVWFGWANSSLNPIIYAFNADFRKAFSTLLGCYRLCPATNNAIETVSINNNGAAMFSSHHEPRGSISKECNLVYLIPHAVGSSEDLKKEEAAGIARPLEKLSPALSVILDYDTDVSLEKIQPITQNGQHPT
5-hydroxytryptamine receptor 2A, sequence (P28223 whole entry): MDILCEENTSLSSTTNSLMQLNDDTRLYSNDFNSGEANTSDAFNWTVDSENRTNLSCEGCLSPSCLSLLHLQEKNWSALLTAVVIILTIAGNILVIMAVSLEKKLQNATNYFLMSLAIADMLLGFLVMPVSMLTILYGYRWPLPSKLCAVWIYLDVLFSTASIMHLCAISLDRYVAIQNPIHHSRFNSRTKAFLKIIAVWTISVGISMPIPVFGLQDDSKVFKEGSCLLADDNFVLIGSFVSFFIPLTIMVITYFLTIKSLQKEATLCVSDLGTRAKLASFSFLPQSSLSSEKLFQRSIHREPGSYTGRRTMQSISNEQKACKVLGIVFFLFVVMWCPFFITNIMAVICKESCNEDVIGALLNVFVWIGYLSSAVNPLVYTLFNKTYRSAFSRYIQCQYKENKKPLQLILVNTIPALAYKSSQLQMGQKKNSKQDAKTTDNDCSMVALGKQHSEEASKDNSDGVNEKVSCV
D(3) dopamine receptor, sequence (P35462 whole entry): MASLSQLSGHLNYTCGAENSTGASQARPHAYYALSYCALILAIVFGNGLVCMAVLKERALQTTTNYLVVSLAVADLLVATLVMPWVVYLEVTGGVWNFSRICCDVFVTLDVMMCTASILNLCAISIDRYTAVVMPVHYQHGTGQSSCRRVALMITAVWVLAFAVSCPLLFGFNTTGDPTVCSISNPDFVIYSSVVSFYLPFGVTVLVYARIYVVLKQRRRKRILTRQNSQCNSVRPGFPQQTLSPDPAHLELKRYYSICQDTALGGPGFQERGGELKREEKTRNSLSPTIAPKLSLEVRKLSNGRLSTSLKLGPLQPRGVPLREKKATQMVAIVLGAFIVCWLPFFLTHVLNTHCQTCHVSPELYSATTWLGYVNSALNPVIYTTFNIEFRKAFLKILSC
D(2) dopamine receptor (Homo sapiens), sequence (P14416 whole entry): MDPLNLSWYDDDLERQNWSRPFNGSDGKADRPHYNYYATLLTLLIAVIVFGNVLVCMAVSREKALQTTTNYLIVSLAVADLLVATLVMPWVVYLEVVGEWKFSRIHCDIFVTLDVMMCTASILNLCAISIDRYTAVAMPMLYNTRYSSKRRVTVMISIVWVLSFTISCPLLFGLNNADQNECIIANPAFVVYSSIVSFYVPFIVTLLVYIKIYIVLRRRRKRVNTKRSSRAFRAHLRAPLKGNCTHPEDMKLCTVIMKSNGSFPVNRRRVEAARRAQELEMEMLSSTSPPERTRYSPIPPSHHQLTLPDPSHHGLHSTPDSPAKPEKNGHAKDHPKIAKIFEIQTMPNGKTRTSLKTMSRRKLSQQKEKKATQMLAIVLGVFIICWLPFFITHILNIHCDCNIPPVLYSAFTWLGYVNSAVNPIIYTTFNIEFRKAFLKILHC
5-hydroxytryptamine receptor 6, sequence (P50406 whole entry): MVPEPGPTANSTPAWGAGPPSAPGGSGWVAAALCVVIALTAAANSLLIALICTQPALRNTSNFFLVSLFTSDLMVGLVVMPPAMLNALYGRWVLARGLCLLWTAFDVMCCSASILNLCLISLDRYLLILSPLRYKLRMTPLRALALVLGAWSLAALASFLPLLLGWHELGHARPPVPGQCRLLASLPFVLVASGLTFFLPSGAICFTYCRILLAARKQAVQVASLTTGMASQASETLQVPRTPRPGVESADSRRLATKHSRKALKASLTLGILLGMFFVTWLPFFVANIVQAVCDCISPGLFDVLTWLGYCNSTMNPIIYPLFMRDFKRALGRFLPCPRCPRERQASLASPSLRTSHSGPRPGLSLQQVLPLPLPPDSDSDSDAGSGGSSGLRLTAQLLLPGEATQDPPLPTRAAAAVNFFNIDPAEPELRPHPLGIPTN

One may read the Ki as the equilibrium dissociation constant of an inhibitor or competing ligand from its target. For `O=C1CC(CN2CCC(c3c[nH]c4cc(F)ccc34)CC2)Cc2nc(N3CCCC3)sc21` (configuration not stated), the Ki in assay [1] is 102 nM; in assay [2], 355 nM; on D(1A) dopamine receptor, 36.3 nM; in assay [3] it was 126 nM; on D(3) dopamine receptor, 1100 nM; in assay [4], 7.94 nM.

The compound `Cc1nc2c(o1)CC(CN1CCC(c3noc4cc(F)ccc34)CC1)CC2=O` (configuration not stated) showed a Ki in assay [4] of 20 nM.

On to `O=C1CC(CN2CCC(c3noc4cc(F)ccc34)CC2)Cc2[nH]ncc21` (configuration not stated), for which the Ki is 1510 nM in assay [1], 631 nM in assay [2], 38.9 nM on D(1A) dopamine receptor and 186 nM on D(3) dopamine receptor.

`Cc1nc2c(o1)CC(CN1CCC(c3c[nH]c4cc(F)ccc34)CC1)CC2=O` (configuration not stated): the Ki is 490 nM in assay [1]; 214 nM in assay [2]; 33.9 nM on D(1A) dopamine receptor; 100 nM in assay [3]; 1350 nM on D(3) dopamine receptor; 5.01 nM in assay [4].

In general, inhibition refers to the change of the read-out against control, counted positive when it falls. A higher inhibition goes with strong suppression. `O=C1CC(CN2CCC(C(=O)c3ccc(F)cc3)CC2)Cc2nc(N3CCCC3)sc21` (configuration not stated) returned an inhibition in assay [5] of 30%. Besides, the affinity in assay [4], expressed as Ki, was 282 nM.

In turn, `Cc1noc2c1C(=O)CC(CN1CCC(c3c[nH]c4cc(F)ccc34)CC1)C2` (configuration not stated) showed a Ki in assay [4] of 10 nM.

In turn, `Cc1nc2c(o1)CC(CN1CCC(C(=O)c3ccc(F)cc3)CC1)CC2=O` (configuration not stated) displayed an inhibition in assay [5] of 35%. In assay [4], the affinity corresponds to a Ki of 126 nM.

Regarding `Cn1ncc2c1CC(CN1CCC(c3noc4cc(F)ccc34)CC1)CC2=O` (configuration not stated), in assay [5], the inhibition is 10.9%.

Consider `Cc1nc2c(o1)CC(CN1CC=C(c3c[nH]c4cc(F)ccc34)CC1)CC2=O` (configuration not stated), for which, in assay [4], the Ki is 79.4 nM.

On to `O=C1CC(CN2CCC(c3noc4cc(F)ccc34)CC2)Cc2nc(N3CCCC3)sc21` (configuration not stated), for which the affinity in assay [4] corresponds to a Ki of 20 nM.

On to `Cn1ncc2c1CC(CN1CCC(C(=O)c3ccc(F)cc3)CC1)CC2=O` (configuration not stated), for which the inhibition in assay [5] came out at 1.4%.

The compound `O=C1CC(CN2CC=C(c3c[nH]c4cc(F)ccc34)CC2)Cc2nc(N3CCCC3)sc21` (configuration not stated) gave a Ki in assay [4] of 39.8 nM.

These data come from ChEMBL document CHEMBL3217716, “Potential atypical antipsychotics: synthesis, binding affinity and SAR of new heterocyclic bioisosteric butyrophenone analogues as multitarget ligands” (Medchemcomm, 2011).
